The assay concerns Hedgehog pathway activity. The experiment in a line: Shh-Light luciferase reporter assay of Hedgehog pathway activity (Shh-Light2 cells, SAG-stimulated). It is filed as cell-based. The settings on record: for activity at 20 µM: 20 μM compound, read-out: SHH-light % residual @ 20 μM; for activity at 20 µM / activity at 2 µM: SAG 500 nM; for IC50: Table 2, SAG 500 nM, 28-32 hr treatment, read-out: Shh-light IC50; for activity at 2 µM: 2 μM compound, read-out: SHH-light % residual @ 2 μM. As for the experimental part: To examine the inhibition of dynein 2 in cell-based assays, an established luciferase reporter-based cellular assay of Hedgehog pathway activity was employed [Taipale et al., Nature. 2000; 406(6799): 1005-9]. Signaling in this pathway depends on the function of dynein 2. In this setting, expression of luciferase driven by Hedgehog pathway activity was inhibited by compound 5 with an IC50 value of 0.9±0.5 μM. […] The potencies of these compounds in this cell-based assay match the rank-order of dynein 2 inhibition in vitro. In these assays, Hedgehog pathway activity was stimulated using the Synthetic Agonist of Smoothened (SAG). This compound competes with many Hedgehog pathway inhibitors for binding to Smoothened, a key node in the signaling pathway.
SHH-Light Assay (Steinman et al. eLife 2017; 6:e25174.)
NIH-3T3 cells stably expressing a luciferase reporter downstream of a Gli binding site (Shh-Light2 cells, RRID: CVCL_2721) were maintained in DMEM with 10% bovine calf serum (BCS). Cells were seeded at a density of 30,000 cells/well in 96-well tissue culture-treated plates (Corning, cat #353072) in 100 μL in DMEM+10% BCS, and incubated for 48 hr (Taipale et al., 2000). Wells were washed briefly with PBS. Next […] of low serum media (DMEM+0.5% BCS) containing smoothened agonist (SAG, 500 nM), and either solvent control (0.2% DMSO) or test compound (serial three-fold dilutions of each inhibitor starting from 20 μM) were added to the wells. After 28-32 hr of inhibitor treatment, cells were washed with 50 μL PBS and lysed for >30 min in 30 μL Passive Lysis Buffer (Promega Dual Luciferase kit, cat E1910). 5 uL of each lysate was transferred to white, solid-bottom 96-well plates (Greiner, cat #655075), followed by rapid addition (within 30 s) of 30 μL of Luciferase Assay Reagent using a multichannel pipette. Luminescence for each condition was read using a Synergy Neo plate reader (5 s integration time per well). Cell line identity was confirmed by measurement of the degree of response to Hedgehog pathway stimulation by the synthetic agonist SAG and using previously published values from our groups and others as references (Firestone et al., 2012; Hyman et al., 2009).
In general terms: A reporter such as luciferase makes a cellular process visible.

This passage reports activity and IC50 results from US11192893B2, “Pyrazoloquinazolinone antitumor agents” (The Rockefeller University, priority 2017, dated 2021).

Broadly, the IC50 is the concentration that gives 50% inhibition.

As for `COc1ccc2[nH]c3c(C(N)=O)c(-c4ccc(Cl)cc4Cl)nn3c(=O)c2c1` [Example 39, 2-(2,4-Dichlorophenyl)-7-methoxy-9-oxo-4H-pyrazolo[5,1-b]quinazoline-3-carboxamide], the activity at 20 µM was 121% and the half-maximal inhibitory concentration (IC50) was 13000 nM. Consider `COc1ccc2[nH]c3c(C#N)c(-c4ccc(Cl)cc4Cl)nn3c(=O)c2c1` [Example 40, 2-(2,4-Dichlorophenyl)-7-methoxy-9-oxo-4H-pyrazolo[5,1-b]quinazoline-3-carbonitrile], for which the activity at 2 µM came to 37%, the activity at 20 µM was 14% and the 50% inhibitory concentration (IC50) was 594 nM.

Turning to `NC(=O)c1c(COc2ccc(Cl)cc2)nn2c(=O)c3ccccc3[nH]c12` [Example 41, 2-[(4-Chlorophenoxy)methyl]-9-oxo-4H-pyrazolo[5,1-b]quinazoline-3-carboxamide], the activity at 2 µM came to 73.7%. `N#Cc1c(COc2ccc(Cl)cc2)nn2c(=O)c3ccccc3[nH]c12` [Example 42, 2-[(4-Chlorophenoxy)methyl]-9-oxo-4H-pyrazolo[5,1-b]quinazoline-3-carbonitrile]: the activity at 2 µM was determined as 105% and the activity at 20 µM is 4.5%.

For `NC(=O)c1c(CCC(Cl)(Cl)Cl)nn2c(=O)c3ccccc3[nH]c12` [Example 43, 9-Oxo-2-(3,3,3-trichloropropyl)-4,9-dihydropyrazolo[5,1-b]quinazoline-3-carboxamide], the activity at 2 µM came out at 65% and the activity at 20 µM was 15.4%. Consider `N#Cc1c(CCC(Cl)(Cl)Cl)nn2c(=O)c3ccccc3[nH]c12` [Example 44, 9-Oxo-2-(3,3,3-trichloropropyl)-4H-pyrazolo[5,1-b]quinazoline-3-carbonitrile], for which the activity at 2 µM was 45.8% and the activity at 20 µM is 3.4%.

Regarding `NC(=O)c1c(CC2CCCCC2)nn2c(=O)c3ccccc3[nH]c12` [Example 45, 2-(Cyclohexylmethyl)-9-oxo-4H-pyrazolo[5,1-b]quinazoline-3-carboxamide], the activity at 2 µM is 82.4% and the activity at 20 µM is 4%. On to `N#Cc1c(CC2CCCCC2)nn2c(=O)c3ccccc3[nH]c12` [Example 46, 2-(Cyclohexylmethyl)-9-oxo-4H-pyrazolo[5,1-b]quinazoline-3-carbonitrile], for which the activity at 2 µM stood at 67.1% and the activity at 20 µM came out at 5%.

For the compound `NC(=O)c1c(CCOc2ccc(Cl)cc2)nn2c(=O)c3ccccc3[nH]c12` [Example 47, 2-[2-(4-Chlorophenoxy)ethyl]-9-oxo-4H-pyrazolo[5,1-b]quinazoline-3-carboxamide], the activity at 2 µM was 54.7% and the activity at 20 µM turned out to be 11%.

On to `N#Cc1c(CCOc2ccc(Cl)cc2)nn2c(=O)c3ccccc3[nH]c12` [Example 48, 2-[2-(4-Chlorophenoxy)ethyl]-9-oxo-4H-pyrazolo[5,1-b]quinazoline-3-carbonitrile], for which the activity at 2 µM was determined as 75.5% and the activity at 20 µM turned out to be 10.9%.

With `NC(=O)c1c(-c2ccc(Cl)cc2Cl)nn2c(=O)c3c(OCc4ccccc4)cccc3[nH]c12` [Example 49, 8-Benzyloxy-2-(2,4-dichlorophenyl)-9-oxo-4H-pyrazolo[5,1-b]quinazoline-3-carboxamide], the activity at 2 µM came out at 78.3% and the activity at 20 µM is 10.8%. With `N#Cc1c(-c2ccc(Cl)cc2Cl)nn2c(=O)c3c(OCc4ccccc4)cccc3[nH]c12` [Example 50, 8-Benzyloxy-2-(2,4-dichlorophenyl)-9-oxo-4H-pyrazolo[5,1-b]quinazoline-3-carbonitrile], the activity at 2 µM amounted to 75.8%.

Take `NC(=O)c1c(C2CCC(F)(F)CC2)nn2c(=O)c3ccccc3[nH]c12` [Example 51, 2-(4,4-Difluorocyclohexyl)-9-oxo-4H-pyrazolo[5,1-b]quinazoline-3-carboxamide]: the activity at 2 µM worked out at 92.4% and the activity at 20 µM stood at 103%.

Regarding `N#Cc1c(C2CCC(F)(F)CC2)nn2c(=O)c3ccccc3[nH]c12` [Example 52, 2-(4,4-Difluorocyclohexyl)-9-oxo-4H-pyrazolo[5,1-b]quinazoline-3-carbonitrile], the activity at 2 µM was found to be 110% and the activity at 20 µM was determined as 76.9%.

As for `NC(=O)c1c(CC2CC2)nn2c(=O)c3ccccc3[nH]c12` [Example 53, 2-(Cyclopropylmethyl)-9-oxo-4H-pyrazolo[5,1-b]quinazoline-3-carboxamide], the activity at 2 µM was found to be 75.2% and the activity at 20 µM was 123%.

`N#Cc1c(CC2CC2)nn2c(=O)c3ccccc3[nH]c12` [Example 54, 2-(Cyclopropylmethyl)-9-oxo-4H-pyrazolo[5,1-b]quinazoline-3-carbonitrile]: the activity at 2 µM was found to be 81.7%. With `NC(=O)c1c(-c2ccc(Cl)cc2Cl)nn2c(=O)c3cc(OCc4ccccc4)ccc3[nH]c12` [Example 55, 7-Benzyloxy-2-(2,4-dichlorophenyl)-9-oxo-4H-pyrazolo[5,1-b]quinazoline-3-carboxamide], the activity at 2 µM came to 62.8%. Turning to `N#Cc1c(-c2ccc(Cl)cc2Cl)nn2c(=O)c3cc(OCc4ccccc4)ccc3[nH]c12` [Example 56, 7-Benzyloxy-2-(2,4-dichlorophenyl)-9-oxo-4H-pyrazolo[5,1-b]quinazoline-3-carbonitrile], the activity at 2 µM was 49.6%. On to `NC(=O)c1c(CCC(F)(F)F)nn2c(=O)c3ccccc3[nH]c12` [Example 57, 9-Oxo-2-(3,3,3-trifluoropropyl)-4H-pyrazolo[5,1-b]quinazoline-3-carboxamide], for which the activity at 2 µM is 67.9%.

For the compound `N#Cc1c(CCC(F)(F)F)nn2c(=O)c3ccccc3[nH]c12` [Example 58, 9-Oxo-2-(3,3,3-trifluoropropyl)-4H-pyrazolo[5,1-b]quinazoline-3-carbonitrile], the activity at 2 µM stood at 55.5% and the activity at 20 µM amounted to 35.1%. For `N#Cc1c(C2(C(F)(F)F)CC2)nn2c(=O)c3ccccc3[nH]c12` [Example 59, 9-Oxo-2-[1-(trifluoromethyl)cyclopropyl]-4H-pyrazolo[5,1-b]quinazoline-3-carbonitrile], the activity at 2 µM was determined as 89.3% and the activity at 20 µM is 45.1%. `NC(=O)c1c(CCCO)nn2c(=O)c3ccccc3[nH]c12` [Example 60, 2-(3-Hydroxypropyl)-9-oxo-4H-pyrazolo[5,1-b]quinazoline-3-carboxamide]: the activity at 2 µM stood at 78.1% and the activity at 20 µM stood at 99%.

Consider `O=C(O)c1c(-c2ccc(Cl)cc2Cl)nn2c1[nH]c(=O)c1ccccc12` [Example 61, 2-(2,4-Dichlorophenyl)-5-oxo-4H-pyrazolo[1,5-a]quinazoline-3-carboxylic acid], for which the activity at 20 µM was determined as 66.7%. With `NC(=O)c1c(-c2ccc(Cl)cc2Cl)nn2c1[nH]c(=O)c1ccccc12` [Example 62, 2-(2,4-Dichlorophenyl)-5-oxo-4H-pyrazolo[1,5-a]quinazoline-3-carboxamide], the activity at 20 µM was 42.1%. With `COc1ccc2c(c1)c(=O)[nH]c1c(C#N)c(C3(c4ccc(Cl)cc4)CC3)nn12` [Example 64, 2-[1-(4-Chlorophenyl)cyclopropyl]-7-methoxy-5-oxo-4H-pyrazolo[1,5-a]quinazoline-3-carbonitrile], the activity at 2 µM is 91.6% and the activity at 20 µM is 90.4%.

Regarding `COc1ccc2c(c1)c(=O)[nH]c1c(C#N)c(-c3ccc(Cl)cc3Cl)nn12` [Example 65, 2-(2,4-Dichlorophenyl)-7-methoxy-5-oxo-4H-pyrazolo[1,5-a]quinazoline-3-carbonitrile], the activity at 2 µM came to 76.9% and the activity at 20 µM is -1%. As to `N#Cc1ccc2c(c1)c(=O)[nH]c1c(C#N)c(C3(c4ccc(Cl)cc4)CC3)nn12` [Example 66, 2-[1-(4-Chlorophenyl)cyclopropyl]-5-oxo-4H-pyrazolo[1,5-a]quinazoline-3,7-dicarbonitrile], the activity at 2 µM was determined as 39.6%, the activity at 20 µM is -3.8% and the half-maximal inhibitory concentration (IC50) was 1500 nM. With `COC(=O)c1c(-c2ccc(Cl)cc2Cl)nn2c(=O)c3ccccc3[nH]c12` [Example 67, Methyl 2-(2,4-dichlorophenyl)-9-oxo-4H-pyrazolo[5,1-b]quinazoline-3-carboxylate], the activity at 20 µM came out at 80.3%.

On to `CC(C)OC(=O)c1c(-c2ccc(Cl)cc2Cl)nn2c(=O)c3ccccc3[nH]c12` [Example 68, Isopropyl 2-(2,4-dichlorophenyl)-9-oxo-4H-pyrazolo[5,1-b]quinazoline-3-carboxylate], for which the activity at 2 µM was 90.5% and the activity at 20 µM turned out to be 110%.
